We go through nine compounds from ChEMBL document CHEMBL2429721, “Novel 2,6-bis(4-methoxyphenyl)-1-methylpiperidin-4-one oxime esters: synthesis and a new insight into their antioxidant and antimicrobial potential” (Med Chem Res, 2013).

The term IC50 denotes the concentration that gives 50% inhibition.

Holding throughout (type): functional
In assay [1] the test system is Candida albicans. As to the kind of experiment: Antifungal activity against Candida albicans MTCC 3017 assessed as growth inhibition at 1000 ug/mL after 72 hrs by agar well plate method. The note with it: MTCC 3017, 72 h, read-out: DIZ.
Assay [2] in a line: Antioxidant activity assessed as ferric ion reducing activity at 10 uM after 20 mins by FRAP assay.
Assay [3] in a line: Antifungal activity against Chrysosporium keratinophilum MTCC 2827 assessed as growth inhibition at 500 ug/mL after 72 hrs by agar well plate method.
The test system of assay [4] is Staphylococcus aureus. As to the kind of experiment: Antibacterial activity against Staphylococcus aureus ATCC 25923 assessed as growth inhibition at 500 ug/mL after 24 hrs by agar well plate method. Particulars: ATCC 25923, 24 h, read-out: DIZ.
Assay [5] deals with Pseudomonas aeruginosa. As to the kind of experiment: Antibacterial activity against Pseudomonas aeruginosa ATCC 27853 assessed as growth inhibition at 500 ug/mL after 24 hrs by agar well plate method. The note with it: ATCC 27853, 24 h, read-out: DIZ.
For assay [6], the system named is Pseudomonas aeruginosa. As to the kind of experiment: Antibacterial activity against Pseudomonas aeruginosa ATCC 27853 assessed as growth inhibition at 1000 ug/mL after 24 hrs by agar well plate method. The note with it: ATCC 27853, 24 h, read-out: DIZ.
In assay [7] the test system is Candida albicans. As to the kind of experiment: Antifungal activity against Candida albicans MTCC 3017 assessed as growth inhibition at 500 ug/mL after 72 hrs by agar well plate method. The note with it: MTCC 3017, 72 h, read-out: DIZ.
Assay [8] is described as follows: Antifungal activity against Chrysosporium keratinophilum MTCC 2827 assessed as growth inhibition at 1000 ug/mL after 72 hrs by agar well plate method.
For assay [9], the system named is Escherichia coli. As to the kind of experiment: Antibacterial activity against Escherichia coli ATCC 25922 assessed as growth inhibition at 500 ug/mL after 24 hrs by agar well plate method. The note with it: ATCC 25922, 24 h, read-out: DIZ.
Assay [10] relates to Radical scavenging activity. As to the kind of experiment: Antioxidant activity assessed as DPPH free radical scavenging activity after 20 mins by UV-visible spectrophotometric analysis. (The DPPH test is a chemical assay of radical scavenging.)
In assay [11] the test system is Aspergillus flavus. As to the kind of experiment: Antifungal activity against Aspergillus flavus MTCC 3306 assessed as growth inhibition at 1000 ug/mL after 72 hrs by agar well plate method. The note with it: MTCC 3306, 72 h, read-out: DIZ.
Assay [12] deals with Escherichia coli. As to the kind of experiment: Antibacterial activity against Escherichia coli ATCC 25922 assessed as growth inhibition at 1000 ug/mL after 24 hrs by agar well plate method. The note with it: ATCC 25922, 24 h, read-out: DIZ.
The nature of assay [13]: Antioxidant activity assessed as cupric ion reducing activity at 10 uM after 30 mins by CUPRAC assay.
The nature of assay [14]: Antioxidant activity assessed as ABTS free radical scavenging activity after 30 mins.
Assay [15] relates to Aspergillus flavus. As to the kind of experiment: Antifungal activity against Aspergillus flavus MTCC 3306 assessed as growth inhibition at 500 ug/mL after 72 hrs by agar well plate method. Particulars: MTCC 3306, 72 h, read-out: DIZ.
The test system of assay [16] is Staphylococcus aureus. As to the kind of experiment: Antibacterial activity against Staphylococcus aureus ATCC 25923 assessed as growth inhibition at 1000 ug/mL after 24 hrs by agar well plate method. The note with it: ATCC 25923, 24 h, read-out: DIZ.

As for `COc1ccc(C(=O)ON=C2CC(c3ccc(OC)cc3)N(C)C(c3ccc(OC)cc3)C2)cc1` (centres undefined), the zone of inhibition at 1000 µg/mL in the assay on Candida albicans [1] was 7 mm; in the assay with Pseudomonas aeruginosa [6] it was 4 mm; with Aspergillus flavus [11] it was 5 mm; in the assay on Escherichia coli [12] it was 2 mm; in the assay on Staphylococcus aureus [16] it was 3 mm. Besides, the Activity in assay [2] is 0.31; in assay [13], 0.245. Also, the inhibition zone (IZ) in [3] and in assay [8] was 3 mm each time. In addition, the zone of inhibition at 500 µg/mL with Staphylococcus aureus [4] was 1 mm; in the assay on Pseudomonas aeruginosa [5] it was 3 mm; in the assay on Candida albicans [7] it was 5 mm; with Escherichia coli [9] it was 1 mm; with Aspergillus flavus [15], 4 mm. Also, the concentration for half-maximal inhibition (IC50) in assay [10] worked out at 32 µM; in assay [14], 68 µM.
Regarding `COc1ccc(C2CC(=NOC(=O)c3cc(O)cc(O)c3)CC(c3ccc(OC)cc3)N2C)cc1` (centres undefined), the zone of inhibition at 1000 µg/mL in the assay with Candida albicans [1] was 3 mm; in the assay with Pseudomonas aeruginosa [6], 5 mm; in the assay with Aspergillus flavus [11], 1 mm; with Escherichia coli [12], 3 mm; with Staphylococcus aureus [16] it was 4 mm. Further, the figures for the Activity in assay [2] and in assay [13] were 0.352 and 0.363, respectively. Besides, the inhibition zone (IZ) in assay [3] is 1 mm; in assay [8], 0 mm. The zone of inhibition at 500 µg/mL with Staphylococcus aureus [4] was found to be 4 mm; with Pseudomonas aeruginosa [5], 4 mm; in the assay with Candida albicans [7] it was 3 mm; in the assay with Escherichia coli [9], 4 mm; in the assay on Aspergillus flavus [15], 0 mm. Also, the IC50 in [10] came to 12 µM; in assay [14], 19 µM.
As for `COc1ccc(C2CC(=NOC(=O)c3ccccc3)CC(c3ccc(OC)cc3)N2C)cc1` (centres undefined), the zone of inhibition at 1000 µg/mL stood at 3 mm in the assay on Candida albicans [1]; 2 mm in the assay on Pseudomonas aeruginosa [6]; 1 mm with Aspergillus flavus [11]; 2 mm in the assay with Escherichia coli [12]; 3 mm in the assay with Staphylococcus aureus [16]. Further, the Activity in [2] was 0.132; in assay [13] it was 0.111. In addition, the results for the inhibition zone (IZ) in assay [3] and in [8] were 1 mm and 2 mm, respectively. The zone of inhibition at 500 µg/mL in the assay on Staphylococcus aureus [4] worked out at 2 mm; with Pseudomonas aeruginosa [5], 1 mm; in the assay on Candida albicans [7], 2 mm; with Escherichia coli [9], 1 mm; with Aspergillus flavus [15], 1 mm. For the same compound, the IC50 was found to be 152 µM in assay [10] and 375 µM in assay [14].
`COc1ccc(C2CC(=NOC(=O)c3cc([N+](=O)[O-])cc([N+](=O)[O-])c3)CC(c3ccc(OC)cc3)N2C)cc1` (centres undefined): the zone of inhibition at 1000 µg/mL in the assay on Candida albicans [1] worked out at 8 mm; in the assay with Pseudomonas aeruginosa [6], 9 mm; with Aspergillus flavus [11] it was 4 mm; in the assay with Escherichia coli [12] it was 9 mm; with Staphylococcus aureus [16], 6 mm. Besides, the results for the Activity in [2] and in [13] were 0.195 and 0.145, respectively. Besides, the inhibition zone (IZ) in [3] and in assay [8] was 5 mm in each case. In addition, the zone of inhibition at 500 µg/mL with Staphylococcus aureus [4] stood at 3 mm; with Pseudomonas aeruginosa [5], 6 mm; in the assay with Candida albicans [7], 3 mm; with Escherichia coli [9], 4 mm; in the assay with Aspergillus flavus [15], 3 mm. Further, the results for the IC50 in [10] and in assay [14] were 125 µM and 312 µM, respectively.
`COc1ccc(C2CC(=NOC(=O)c3cccc(O)c3)CC(c3ccc(OC)cc3)N2C)cc1` (centres undefined): the zone of inhibition at 1000 µg/mL stood at 3 mm in the assay with Candida albicans [1]; 5 mm in the assay with Pseudomonas aeruginosa [6]; 1 mm in the assay on Aspergillus flavus [11]; 6 mm in the assay with Escherichia coli [12]; 6 mm with Staphylococcus aureus [16]. For the same compound, the values for the Activity in assay [2] and in assay [13] were 0.321 and 0.265, respectively. Besides, the results for the inhibition zone (IZ) in assay [3] and in [8] were 0 mm and 1 mm, respectively. Also, the zone of inhibition at 500 µg/mL in the assay with Staphylococcus aureus [4] came to 4 mm; in the assay on Pseudomonas aeruginosa [5], 3 mm; with Candida albicans [7] it was 1 mm; with Escherichia coli [9], 5 mm; in the assay with Aspergillus flavus [15], 0 mm. Further, the half-maximal inhibitory concentration (IC50) in assay [10] was 21 µM; in [14] it was 34 µM.
For the compound `COc1ccc(C2CC(=NOC(=O)c3ccccc3O)CC(c3ccc(OC)cc3)N2C)cc1` (centres undefined), the zone of inhibition at 1000 µg/mL with Candida albicans [1] came to 6 mm; in the assay on Pseudomonas aeruginosa [6], 4 mm; in the assay on Aspergillus flavus [11] it was 3 mm; in the assay with Escherichia coli [12], 5 mm; in the assay on Staphylococcus aureus [16], 4 mm. The Activity in assay [2] is 0.33; in assay [13] it was 0.272. Moreover, the inhibition zone (IZ) came out at 3 mm in assay [3] and 5 mm in assay [8]. Moreover, the zone of inhibition at 500 µg/mL in the assay with Staphylococcus aureus [4] is 4 mm; in the assay with Pseudomonas aeruginosa [5], 3 mm; in the assay with Candida albicans [7], 2 mm; with Escherichia coli [9] it was 3 mm; with Aspergillus flavus [15], 2 mm. The results for the IC50 in assay [10] and in [14] were 19 µM and 29 µM, respectively.
In the case of `COc1ccc(C2CC(=NOC(=O)c3ccc(O)cc3)CC(c3ccc(OC)cc3)N2C)cc1` (centres undefined), the zone of inhibition at 1000 µg/mL in the assay with Candida albicans [1] was determined as 2 mm; in the assay on Pseudomonas aeruginosa [6], 3 mm; with Aspergillus flavus [11] it was 0 mm; in the assay with Escherichia coli [12], 4 mm; with Staphylococcus aureus [16], 5 mm. Besides, the Activity is 0.333 in assay [2] and 0.293 in assay [13]. The inhibition zone (IZ) in assay [3] amounted to 1 mm; in [8], 2 mm. In addition, the zone of inhibition at 500 µg/mL in the assay with Staphylococcus aureus [4] came to 3 mm; with Pseudomonas aeruginosa [5], 2 mm; in the assay on Candida albicans [7], 2 mm; in the assay on Escherichia coli [9] it was 3 mm; in the assay on Aspergillus flavus [15], 1 mm. In addition, the figures for the half-inhibitory concentration (IC50) in assay [10] and in [14] were 15 µM and 25 µM, respectively.
Turning to `COc1ccc(C2CC(=NOC(=O)c3ccc(Br)cc3)CC(c3ccc(OC)cc3)N2C)cc1` (centres undefined), the zone of inhibition at 1000 µg/mL in the assay on Candida albicans [1] was determined as 9 mm; with Pseudomonas aeruginosa [6] it was 9 mm; in the assay on Aspergillus flavus [11] it was 5 mm; in the assay with Escherichia coli [12], 10 mm; in the assay on Staphylococcus aureus [16] it was 8 mm. In addition, the figures for the Activity in [2] and in [13] were 0.265 and 0.215, respectively. Besides, the results for the inhibition zone (IZ) in assay [3] and in [8] were 4 mm and 6 mm, respectively. For the same compound, the zone of inhibition at 500 µg/mL came to 6 mm with Staphylococcus aureus [4]; 7 mm in the assay with Pseudomonas aeruginosa [5]; 8 mm with Candida albicans [7]; 6 mm with Escherichia coli [9]; 4 mm in the assay with Aspergillus flavus [15]. The IC50 in assay [10] was determined as 92 µM; in [14] it was 121 µM.
On to `COc1ccc(C2CC(=NO)CC(c3ccc(OC)cc3)N2C)cc1` (centres undefined), for which the zone of inhibition at 1000 µg/mL with Candida albicans [1], in the assay with Pseudomonas aeruginosa [6], in the assay with Aspergillus flavus [11], in the assay on Escherichia coli [12] and with Staphylococcus aureus [16] was 1 mm in each case. In addition, the Activity in assay [2] was determined as 0.127; in assay [13], 0.164. The inhibition zone (IZ) in [3] and in assay [8] was 1 mm each time. Also, the zone of inhibition at 500 µg/mL was 0 mm with Staphylococcus aureus [4]; 0 mm in the assay with Pseudomonas aeruginosa [5]; 1 mm in the assay on Candida albicans [7]; 0 mm in the assay with Escherichia coli [9]; 0 mm with Aspergillus flavus [15]. Also, the IC50 in [10] came out at 165 µM; in assay [14], 380 µM.
